{"source": "paper PMC7542351", "about": "“Construction of a new T7 promoter compatible Escherichia coli Nissle 1917 strain for recombinant production of heme-dependent proteins” (Microbial Cell Factories, 2020)", "target": "T1, Cph1 (Synechocystis sp. PCC 6803, UniProt Q55168)", "T1 construct": "His6 tag; ~80 kDa; pET-cph1; co-produced with HO1 and PcyA in E. coli; cell-free lysate", "T1 sequence (Q55168 whole entry)": "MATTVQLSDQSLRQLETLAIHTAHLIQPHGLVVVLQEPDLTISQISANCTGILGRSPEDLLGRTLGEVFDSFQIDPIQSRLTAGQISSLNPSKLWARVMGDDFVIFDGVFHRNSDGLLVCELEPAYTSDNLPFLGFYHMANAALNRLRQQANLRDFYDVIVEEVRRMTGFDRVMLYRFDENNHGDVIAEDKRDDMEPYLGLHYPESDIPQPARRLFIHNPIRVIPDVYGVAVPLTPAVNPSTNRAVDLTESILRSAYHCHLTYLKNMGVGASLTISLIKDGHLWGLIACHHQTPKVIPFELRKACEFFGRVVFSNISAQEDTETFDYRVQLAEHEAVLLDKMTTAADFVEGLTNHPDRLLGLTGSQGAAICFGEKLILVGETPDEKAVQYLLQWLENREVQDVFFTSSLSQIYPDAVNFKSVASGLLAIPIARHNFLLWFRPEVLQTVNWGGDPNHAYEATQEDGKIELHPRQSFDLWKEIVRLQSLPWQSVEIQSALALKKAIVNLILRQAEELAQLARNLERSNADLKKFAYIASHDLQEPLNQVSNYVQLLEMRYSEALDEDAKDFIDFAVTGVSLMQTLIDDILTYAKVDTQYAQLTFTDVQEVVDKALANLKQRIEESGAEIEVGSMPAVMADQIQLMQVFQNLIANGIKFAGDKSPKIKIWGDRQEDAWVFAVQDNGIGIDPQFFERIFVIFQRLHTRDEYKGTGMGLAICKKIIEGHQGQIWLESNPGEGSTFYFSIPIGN", "assay": "red/far-red induced difference spectroscopy of holo-phytochrome", "format": "biochemical", "details": "cell-free lysate; pH 8.0, 25 °C; 630 nm / 730 nm light; PCB made in vivo by co-expressed HO1 and PcyA, and 40 µM PCB added; covalent", "data": [{"smiles": "CC=C1C(=Cc2[nH]c(C=C3N=C(C=C4NC(=O)C(CC)=C4C)C(C)=C3CCC(=O)O)c(CCC(=O)O)c2C)NC(=O)C1C", "note": "(stereo not shown) [phycocyanobilin]", "values": [{"measurement": "red/far-red induced difference spectroscopy of holo-phytochrome", "result": "Comparison of difference spectra before and after incubation with PCB indicated a higher saturation"}]}]}
